Laboratory results taken from patent US9713651B2, “Compositions, methods, and systems for the synthesis and use of imaging agents” (Lantheus Medical Imaging, Inc., priority 2012, dated 2017).

Experiment: Tissue distribution of 18F imaging agents in rats
Type: in vivo, Male Sprague Dawley rats
Conditions: rat, iv tail vein ~15 μCi, ± SEM; for Blood, imaging agent distribution at 15 min / Brain, imaging agent distribution at 15 min / Femur, imaging agent distribution at 15 min / Heart, imaging agent distribution at 15 min / Kidney, imaging agent distribution at 15 min / Liver, imaging agent distribution at 15 min / Lung, imaging agent distribution at 15 min / Muscle, imaging agent distribution at 15 min / Spleen, imaging agent distribution at 15 min / Pancreas, imaging agent distribution at 15 min: 15 min post injection; for Blood, imaging agent distribution at 60 min / Brain, imaging agent distribution at 60 min / Femur, imaging agent distribution at 60 min / Heart, imaging agent distribution at 60 min / Kidney, imaging agent distribution at 60 min / Liver, imaging agent distribution at 60 min / Lung, imaging agent distribution at 60 min / Muscle, imaging agent distribution at 60 min / Spleen, imaging agent distribution at 60 min / Pancreas, imaging agent distribution at 60 min: 60 min post injection
Procedure: Anesthetized (sodium pentobarbital at 50 mg/kg, ip or isoflurane gas inhalation) Male Sprague Dawley rats (250-350 g) received an iv injection of the imaging agent (˜15 μCi) via the tail vein. At 15 or 60 min post injection, the animals were euthanized and the required tissue samples harvested. All samples were then weighed and counted for radioactivity (Wallac Wizard 1480 or Packard Cobra II Autogamma); regional tissue uptake of the imaging agent was thus expressed as a percentage of the total injected dose per gram of tissue (% ID/g).
The generic structure depicted below highlights specific structural features evaluated during distribution experiments.

Structure (SMILES) | Blood, imaging agent distribution at 15 min [% ID/g] | Brain, imaging agent distribution at 15 min [% ID/g] | Femur, imaging agent distribution at 15 min [% ID/g] | Heart, imaging agent distribution at 15 min [% ID/g] | Kidney, imaging agent distribution at 15 min [% ID/g] | Liver, imaging agent distribution at 15 min [% ID/g] | Lung, imaging agent distribution at 15 min [% ID/g] | Muscle, imaging agent distribution at 15 min [% ID/g] | Spleen, imaging agent distribution at 15 min [% ID/g] | Blood, imaging agent distribution at 60 min [% ID/g] | Brain, imaging agent distribution at 60 min [% ID/g] | Femur, imaging agent distribution at 60 min [% ID/g] | Heart, imaging agent distribution at 60 min [% ID/g] | Kidney, imaging agent distribution at 60 min [% ID/g] | Liver, imaging agent distribution at 60 min [% ID/g] | Lung, imaging agent distribution at 60 min [% ID/g] | Muscle, imaging agent distribution at 60 min [% ID/g] | Spleen, imaging agent distribution at 60 min [% ID/g] | Pancreas, imaging agent distribution at 15 min [% ID/g] | Pancreas, imaging agent distribution at 60 min [% ID/g]
CC(C)(C)n1ncc(OCc2ccc(OCCF)cc2)c(Cl)c1=O [Example 67D] | 1.11 | 0.74 | 0.21 | 3.63 | 3.81 | 3.61 | 1.00 | 0.14 | 0.37 | 1.00 | 0.69 | 0.26 | 4.66 | 1.71 | 1.49 | 0.96 | 0.18 | 0.23 | – | –
CC(C)(C)n1ncc(OCc2ccc(OCCOCCF)cc2)c(Cl)c1=O [Example 67B] | 0.49 ± 0.02 | – | 0.80 ± 0.12 | 1.66 ± 0.06 | 2.25 ± 0.05 | 2.33 ± 0.09 | 0.49 ± 0.04 | 0.19 ± 0.00 | 0.41 ± 0.01 | 0.26 ± 0.04 | – | 0.78 ± 0.22 | 1.58 ± 0.13 | 1.17 ± 0.20 | 1.34 ± 0.22 | 0.27 ± 0.03 | 0.15 ± 0.04 | 0.20 ± 0.04 | – | –
CC(C)(C)n1ncc(OCc2ccc([Si](F)(C(C)(C)C)C(C)(C)C)cc2)c(Cl)c1=O [Example 67N] | 0.22 ± 0.04 | 0.03 ± 0.00 | 0.14 ± 0.02 | 0.65 ± 0.09 | 0.51 ± 0.09 | 4.91 ± 0.49 | 1.31 ± 0.24 | 0.06 ± 0.00 | 3.47 ± 0.80 | – | – | – | – | – | – | – | – | – | – | –
CC(OCCF)c1ccc(COc2cnn(C(C)(C)C)c(=O)c2Cl)cc1 (stereo not drawn) [Example 67G] | 0.50 ± 0.18 | 0.59 ± 0.03 | 0.40 ± 0.05 | 2.19 ± 0.36 | 0.88 ± 0.05 | 0.33 ± 0.10 | 0.46 ± 0.12 | 0.35 ± 0.04 | 0.32 ± 0.11 | 0.47 ± 0.04 | 0.39 ± 0.05 | 0.58 ± 0.06 | 0.98 ± 0.16 | 0.44 ± 0.02 | 0.32 ± 0.03 | 0.38 ± 0.03 | 0.33 ± 0.01 | 0.28 ± 0.03 | 0.41 ± 0.03 | 0.26 ± 0.01

Next, values leading:

Blood, imaging agent distribution at 15 min [% ID/g] | Brain, imaging agent distribution at 15 min [% ID/g] | Femur, imaging agent distribution at 15 min [% ID/g] | Heart, imaging agent distribution at 15 min [% ID/g] | Kidney, imaging agent distribution at 15 min [% ID/g] | Liver, imaging agent distribution at 15 min [% ID/g] | Lung, imaging agent distribution at 15 min [% ID/g] | Muscle, imaging agent distribution at 15 min [% ID/g] | Spleen, imaging agent distribution at 15 min [% ID/g] | Blood, imaging agent distribution at 60 min [% ID/g] | Brain, imaging agent distribution at 60 min [% ID/g] | Femur, imaging agent distribution at 60 min [% ID/g] | Heart, imaging agent distribution at 60 min [% ID/g] | Kidney, imaging agent distribution at 60 min [% ID/g] | Liver, imaging agent distribution at 60 min [% ID/g] | Lung, imaging agent distribution at 60 min [% ID/g] | Muscle, imaging agent distribution at 60 min [% ID/g] | Spleen, imaging agent distribution at 60 min [% ID/g] | Pancreas, imaging agent distribution at 15 min [% ID/g] | Pancreas, imaging agent distribution at 60 min [% ID/g] | Structure (SMILES)
0.11 ± 0.02 | 0.49 ± 0.10 | 0.28 ± 0.04 | 2.34 ± 0.57 | 1.13 ± 0.11 | 0.33 ± 0.02 | 0.19 ± 0.03 | 0.28 ± 0.13 | 0.18 ± 0.01 | 0.16 ± 0.01 | 0.36 ± 0.01 | 0.31 ± 0.02 | 1.78 ± 0.15 | 0.48 ± 0.04 | 0.30 ± 0.01 | 0.19 ± 0.01 | 0.35 ± 0.09 | 0.13 ± 0.00 | 0.43 ± 0.10 | 0.23 ± 0.02 | Cc1c(OCc2ccc(COCCF)cc2)cnn(C(C)(C)C)c1=O [Example 67I]
0.07 ± 0.03 | 0.36 ± 0.04 | 0.27 ± 0.02 | 2.68 ± 0.35 | 1.35 ± 0.14 | 0.99 ± 0.06 | 0.37 ± 0.15 | 0.28 ± 0.02 | 0.31 ± 0.09 | 0.03 ± 0.00 | 0.36 ± 0.03 | 0.37 ± 0.05 | 2.46 ± 0.27 | 0.83 ± 0.08 | 0.83 ± 0.17 | 0.15 ± 0.03 | 0.39 ± 0.04 | 0.11 ± 0.02 | 0.55 ± 0.10 | 0.38 ± 0.02 | CC(C)(C)n1ncc(OCc2ccc(Oc3cccnc3F)cc2)c(Cl)c1=O [Example 67O]
0.07 ± 0.03 | 0.36 ± 0.04 | 0.27 ± 0.02 | 2.68 ± 0.35 | 1.35 ± 0.14 | 0.99 ± 0.06 | 0.37 ± 0.15 | 0.28 ± 0.02 | 0.31 ± 0.09 | 0.03 ± 0.00 | 0.36 ± 0.03 | 0.37 ± 0.05 | 2.46 ± 0.27 | 0.83 ± 0.08 | 0.83 ± 0.17 | 0.15 ± 0.03 | 0.39 ± 0.04 | 0.11 ± 0.02 | 0.55 ± 0.10 | 0.38 ± 0.02 | CC(C)(C)n1ncc(OCc2ccc(C#CCCF)cc2)c(Cl)c1=O [Example 67K]
